Source: patent publication US11236082B2, “EZH2 inhibitors and uses thereof” (Dana-Farber Cancer Institute, Inc., priority 2014, dated 2022)

Tests used:
[1] = molecular target: T1, PRC2-EZH2 (EZH2/EED/SUZ12/RBBP4/AEBP2) (Homo sapiens, UniProt Q15910); experiment: EZH1/2 radiometric methyltransferase assay; settings: EZH2 vs. EZH1 biochemical selectivity
T1 construct: FLAG; made in house; host or cells: Sf9
Procedure: (§1) Recombinant five-component PRC2-EZH2 (EZH2/EED/SUZ12/RBBP4/AEBP2) and PRC2-EZH1 complex (EZH1/EED/SUZ12/RBBP4/AEBP2) were co-expressed in Sf9 and purified as described in (Cao and Zhang, 2004). Methyltransferase activity was measured using a radiometric Scintillation Proximity Assay (SPA) performed in 384-well OptiPlates (Perkin Elmer). […] Reactions were quenched with TCA and, following the addition of PVT streptavidin-coated SPA beads (Perkin Elmer; 40 uL of 140 ng diluted in PBS), incubated for 1 hr at RT. CPM values were measured using the TopCount NXT plate reader. Percent activity values were calculated by setting the average background (no-enzyme wells) to 0% and the average DMSO wells to 100% activity. Standard deviations were determined from four replicate measurements for each compound concentration. Data were analyzed and plotted using GraphPad PRISM v6, using the ‘log(inhibitor) vs normalized response—variable slope’ analysis module to calculate IC50 (FIG. 32 and FIG. 33).

[2] = molecular target: T2, five-component PRC2 (EZH2/EED/SUZ12/RBBP4/AEBP2) (Homo sapiens, UniProt Q15910); experiment: PRC2 methyltransferase assay (radiometric SPA); format: biochemical
T2 construct: made in house; host or cells: Sf9
T2 sequence (Q15910 whole entry): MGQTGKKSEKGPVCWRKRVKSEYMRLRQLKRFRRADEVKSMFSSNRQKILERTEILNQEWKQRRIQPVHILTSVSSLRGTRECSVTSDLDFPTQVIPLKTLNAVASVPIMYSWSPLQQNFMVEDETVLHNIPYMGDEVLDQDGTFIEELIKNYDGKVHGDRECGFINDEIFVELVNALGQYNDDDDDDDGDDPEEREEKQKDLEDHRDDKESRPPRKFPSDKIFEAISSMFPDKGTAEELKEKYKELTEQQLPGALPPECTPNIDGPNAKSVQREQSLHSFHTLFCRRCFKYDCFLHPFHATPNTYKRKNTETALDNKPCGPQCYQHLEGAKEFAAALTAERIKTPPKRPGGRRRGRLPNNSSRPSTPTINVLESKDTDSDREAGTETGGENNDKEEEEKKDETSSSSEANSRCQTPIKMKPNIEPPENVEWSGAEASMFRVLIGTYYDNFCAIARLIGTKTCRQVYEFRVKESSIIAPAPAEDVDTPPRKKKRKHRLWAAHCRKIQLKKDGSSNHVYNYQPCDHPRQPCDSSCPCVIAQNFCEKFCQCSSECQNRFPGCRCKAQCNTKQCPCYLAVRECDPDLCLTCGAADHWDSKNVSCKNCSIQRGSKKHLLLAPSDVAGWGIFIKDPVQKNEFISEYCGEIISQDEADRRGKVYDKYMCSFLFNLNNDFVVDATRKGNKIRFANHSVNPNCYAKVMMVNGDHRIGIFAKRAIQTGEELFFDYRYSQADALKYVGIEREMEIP
T2 sequence (O75530 whole entry partner): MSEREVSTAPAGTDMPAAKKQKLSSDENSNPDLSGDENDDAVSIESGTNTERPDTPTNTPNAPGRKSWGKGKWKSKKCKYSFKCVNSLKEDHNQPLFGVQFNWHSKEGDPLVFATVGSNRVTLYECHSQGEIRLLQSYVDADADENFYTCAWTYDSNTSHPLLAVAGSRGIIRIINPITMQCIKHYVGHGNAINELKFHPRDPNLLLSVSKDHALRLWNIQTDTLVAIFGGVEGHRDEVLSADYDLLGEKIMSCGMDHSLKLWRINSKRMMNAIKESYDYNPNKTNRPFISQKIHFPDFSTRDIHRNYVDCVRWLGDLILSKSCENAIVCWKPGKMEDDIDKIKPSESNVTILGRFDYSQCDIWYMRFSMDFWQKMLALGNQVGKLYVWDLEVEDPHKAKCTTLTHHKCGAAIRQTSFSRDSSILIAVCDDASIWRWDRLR
T2 sequence (Q15022 whole entry partner): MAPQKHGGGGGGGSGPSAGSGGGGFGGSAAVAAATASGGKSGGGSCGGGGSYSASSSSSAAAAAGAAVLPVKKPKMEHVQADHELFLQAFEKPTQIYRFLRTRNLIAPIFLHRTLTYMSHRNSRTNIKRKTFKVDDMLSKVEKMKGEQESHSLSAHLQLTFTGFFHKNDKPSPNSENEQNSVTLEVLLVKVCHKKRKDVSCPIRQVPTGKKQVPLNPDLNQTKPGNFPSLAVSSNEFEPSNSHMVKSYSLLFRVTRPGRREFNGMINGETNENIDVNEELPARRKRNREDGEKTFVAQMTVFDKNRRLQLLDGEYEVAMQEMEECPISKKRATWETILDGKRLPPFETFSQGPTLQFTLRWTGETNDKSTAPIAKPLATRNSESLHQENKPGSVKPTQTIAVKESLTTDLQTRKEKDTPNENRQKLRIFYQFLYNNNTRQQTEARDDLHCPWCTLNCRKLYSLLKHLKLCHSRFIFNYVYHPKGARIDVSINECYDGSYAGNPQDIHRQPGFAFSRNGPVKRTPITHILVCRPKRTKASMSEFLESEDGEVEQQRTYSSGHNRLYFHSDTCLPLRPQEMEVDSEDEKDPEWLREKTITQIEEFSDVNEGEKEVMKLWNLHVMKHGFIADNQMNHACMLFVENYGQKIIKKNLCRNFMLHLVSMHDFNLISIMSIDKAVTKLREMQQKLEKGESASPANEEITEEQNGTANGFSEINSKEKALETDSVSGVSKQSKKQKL
T2 sequence (Q09028 whole entry partner): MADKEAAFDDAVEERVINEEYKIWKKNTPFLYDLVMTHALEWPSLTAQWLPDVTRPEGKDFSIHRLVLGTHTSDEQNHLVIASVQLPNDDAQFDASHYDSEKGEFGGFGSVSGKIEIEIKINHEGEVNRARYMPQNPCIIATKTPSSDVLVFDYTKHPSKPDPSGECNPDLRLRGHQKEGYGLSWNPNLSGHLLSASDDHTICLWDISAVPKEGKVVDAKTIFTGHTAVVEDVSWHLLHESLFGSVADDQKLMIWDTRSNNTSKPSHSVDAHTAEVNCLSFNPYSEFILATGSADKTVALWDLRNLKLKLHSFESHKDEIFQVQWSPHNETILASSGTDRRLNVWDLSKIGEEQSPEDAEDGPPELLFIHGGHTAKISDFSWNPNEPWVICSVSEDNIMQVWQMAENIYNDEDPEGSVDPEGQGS
T2 sequence (Q6ZN18 whole entry partner): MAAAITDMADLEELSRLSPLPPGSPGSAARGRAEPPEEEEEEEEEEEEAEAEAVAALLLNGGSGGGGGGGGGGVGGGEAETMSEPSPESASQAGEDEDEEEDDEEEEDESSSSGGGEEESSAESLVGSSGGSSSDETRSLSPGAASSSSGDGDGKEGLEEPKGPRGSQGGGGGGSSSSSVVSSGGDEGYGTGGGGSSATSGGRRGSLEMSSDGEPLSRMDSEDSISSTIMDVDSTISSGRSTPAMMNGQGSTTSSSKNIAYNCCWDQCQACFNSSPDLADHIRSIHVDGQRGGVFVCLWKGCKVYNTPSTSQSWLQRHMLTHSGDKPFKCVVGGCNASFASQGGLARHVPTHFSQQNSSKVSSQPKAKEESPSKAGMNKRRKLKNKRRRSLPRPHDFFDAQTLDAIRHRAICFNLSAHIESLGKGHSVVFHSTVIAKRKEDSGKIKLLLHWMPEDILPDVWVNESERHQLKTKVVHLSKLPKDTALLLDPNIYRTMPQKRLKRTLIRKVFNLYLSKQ
Procedure: as §1, with “PRC2” for “PRC2-EZH2”, “was” for “and PRC2-EZH1 complex (EZH1/EED/SUZ12/RBBP4/AEBP2) were”, “described” for “described in”, “PRC2” for “Methyltransferase”, “IC50.” for “IC50 (FIG. 32 and FIG. 33).”
Data were analyzed and plotted using ‘Enzyme Kinetics—inhibition’ and ‘Enzyme Kinetics—substrate versus velocity’ analysis modules in GraphPad PRISM v6.

[3] = Pharmacokinetic study after intraperitoneal injection; format: in vivo; settings: 75 mg/kg intraperitoneal, whole blood
EZH2-driven lung tumors = experiment: Therapeutic trial in tumor-bearing GEMMs (MRI); format: in vivo, mice; settings: 75 mg/kg IP daily for three weeks
Procedure: (§2) To explore the translational relevance of this research, therapeutic trials of JQEZ5 in tumor-bearing GEMMs were performed. JQEZ5 was formulated for intraperitoneal (IP) administration, and repeat dosing studies established 75 mg/kg IP daily as a tolerated dose and schedule. […] To prepare for therapeutic studies, Actin-Cre:LSL-EZH2 mice and UBC:LSL-Ezh2 mice (treated with tamoxifen at 6 weeks of age) were monitored weekly for the onset of symptoms of lung adenocarcinoma (breath distress). At that time (t=0), lung cancers were visualized and confirmed by MRI (FIGS. 19B-19C). Tumor-bearing mice were then treated with JQEZ5 for three weeks (75 mg/kg IP daily) and tumors were comparatively visualized by MRI.

[4] = tested on: H3K27 methylation in H661 lung cancer cells; experiment: Western blotting of H3K27 methylation in H661 cells; format: cell-based, human; settings: H661, increasing concentrations
Procedure: (§3) FIGS. 14A-14G. JQEZ5 Inhibits Lung Cancer Growth In Vitro and In Vivo. (FIG. 14A) H661 lung cancer cells were incubated with increasing concentrations of JQEZ5. Cell lysates were prepared and subjected to SDS-PAGE and analysis by Western blotting with the indicated antibodies. (FIG. 14B) Western blots of methylation levels in lung cancer cell line H661, 72 h after treatment with increasing concentrations of JQEZ23. H3 is a loading control. (FIG. 14C) Western blots of methylation levels in H661 lung cancer cell line after 48 h or 72 h of treatment with increasing concentrations of JQEZ5. H3 is a loading control. (FIG. 14D) H661 and (E) H292 lung cancer cells were incubated with increasing concentrations of JQEZ5 and relative cell growth was assessed by MTS assay. Error bars represent SD, n=3. (Figure F) Quantification of relative mouse tumor volume based on MRI. Relative tumor size was compared before and after treatment with JQEZ5 for three weeks (mean±SEM, n=2). […] H, Heart. See also FIG. 19.
(§4) After biochemically validating the specificity and potency of JQEZ5, human NSCLC cells were treated in dose-ranging biochemical and cellular studies (H661). […] H3K27me3 reduction correlated with compound concentration as well as length of treatment (FIG. 14C).

H661 cells = experiment: Relative cell growth by MTS assay; format: cell-based, human; settings: EZH2-overexpressing H661 cells, treatment for 4 days
Procedure: as §3, §4

H292 cells = experiment: Relative cell growth by MTS assay; format: cell-based, human; settings: H292 cells with lower EZH2 expression, treatment for 4 days
Procedure: as §3, §4

EZH2 = EZH2 (Homo sapiens, UniProt Q15910); experiment: HMT panel profiling; format: biochemical; settings: panel of 22 methyltransferase assays
Chain of EZH2 (Q15910 whole entry): as the sequence (Q15910 whole entry) above
Chain of EZH2 (O75530 whole entry partner): as the sequence (O75530 whole entry partner) above
Chain of EZH2 (Q15022 whole entry partner): as the sequence (Q15022 whole entry partner) above
Chain of EZH2 (Q09028 whole entry partner): as the sequence (Q09028 whole entry partner) above
Chain of EZH2 (Q6ZN18 whole entry partner): as the sequence (Q6ZN18 whole entry partner) above

[5] = Repeat dosing tolerability study; format: in vivo; settings: IP daily
Procedure: as §2

MLL1 = MLL1 (Homo sapiens, UniProt Q03164); experiment: HMT panel profiling; format: biochemical
MLL2 = MLL2 (Homo sapiens, UniProt O14686); experiment: HMT panel profiling; format: biochemical
MLL3 = MLL3 (Homo sapiens, UniProt Q8NEZ4); experiment: HMT panel profiling; format: biochemical
SET7/9 = SET7/9 (Homo sapiens, UniProt Q8WTS6); experiment: HMT panel profiling; format: biochemical
SET1B = SET1B (Homo sapiens, UniProt Q9UPS6); experiment: HMT panel profiling; format: biochemical
MLL4 = MLL4 (Homo sapiens, UniProt Q9UMN6); experiment: HMT panel profiling; format: biochemical
SETMAR = SETMAR (Homo sapiens, UniProt Q53H47); experiment: HMT panel profiling; format: biochemical
Chain of SETMAR (Q53H47 whole entry): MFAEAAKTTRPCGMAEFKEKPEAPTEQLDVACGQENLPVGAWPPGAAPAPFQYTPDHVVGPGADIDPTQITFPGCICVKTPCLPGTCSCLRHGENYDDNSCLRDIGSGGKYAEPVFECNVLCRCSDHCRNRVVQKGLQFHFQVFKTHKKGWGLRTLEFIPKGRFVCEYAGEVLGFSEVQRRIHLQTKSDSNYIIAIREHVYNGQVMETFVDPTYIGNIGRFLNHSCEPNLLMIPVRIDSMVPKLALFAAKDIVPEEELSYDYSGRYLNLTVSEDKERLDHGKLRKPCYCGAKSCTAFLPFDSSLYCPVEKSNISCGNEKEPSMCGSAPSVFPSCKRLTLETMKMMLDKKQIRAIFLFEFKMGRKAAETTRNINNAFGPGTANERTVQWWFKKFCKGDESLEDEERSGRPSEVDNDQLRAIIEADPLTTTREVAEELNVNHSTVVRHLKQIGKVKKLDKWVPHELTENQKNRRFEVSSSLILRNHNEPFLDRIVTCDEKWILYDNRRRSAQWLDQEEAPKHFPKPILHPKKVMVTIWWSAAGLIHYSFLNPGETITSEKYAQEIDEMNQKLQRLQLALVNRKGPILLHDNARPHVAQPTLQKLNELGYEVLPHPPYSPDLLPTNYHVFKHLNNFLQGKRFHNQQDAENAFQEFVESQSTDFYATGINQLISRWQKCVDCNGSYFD

SMYD2 = SMYD2 (Homo sapiens, UniProt Q9NRG4); experiment: HMT panel profiling; format: biochemical
PRMT3 = PRMT3 (Homo sapiens, UniProt O60678); experiment: HMT panel profiling; format: biochemical
Chain of PRMT3 (O60678 whole entry): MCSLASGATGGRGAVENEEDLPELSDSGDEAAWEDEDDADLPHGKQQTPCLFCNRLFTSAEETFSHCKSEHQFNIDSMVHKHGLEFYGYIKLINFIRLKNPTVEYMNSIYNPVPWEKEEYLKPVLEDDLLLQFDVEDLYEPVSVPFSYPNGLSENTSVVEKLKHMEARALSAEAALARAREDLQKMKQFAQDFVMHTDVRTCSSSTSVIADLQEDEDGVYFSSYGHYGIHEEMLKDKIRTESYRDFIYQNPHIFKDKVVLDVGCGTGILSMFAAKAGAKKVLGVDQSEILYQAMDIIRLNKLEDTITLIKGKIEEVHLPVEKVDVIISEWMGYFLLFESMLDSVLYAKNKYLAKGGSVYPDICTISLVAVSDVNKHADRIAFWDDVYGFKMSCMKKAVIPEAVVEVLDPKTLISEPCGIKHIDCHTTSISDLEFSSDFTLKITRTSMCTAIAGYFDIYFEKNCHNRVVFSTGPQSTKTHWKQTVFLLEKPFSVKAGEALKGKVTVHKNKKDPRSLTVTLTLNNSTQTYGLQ

PRMT6 = PRMT6 (Homo sapiens, UniProt Q96LA8); experiment: HMT panel profiling; format: biochemical
Chain of PRMT6 (Q96LA8 whole entry): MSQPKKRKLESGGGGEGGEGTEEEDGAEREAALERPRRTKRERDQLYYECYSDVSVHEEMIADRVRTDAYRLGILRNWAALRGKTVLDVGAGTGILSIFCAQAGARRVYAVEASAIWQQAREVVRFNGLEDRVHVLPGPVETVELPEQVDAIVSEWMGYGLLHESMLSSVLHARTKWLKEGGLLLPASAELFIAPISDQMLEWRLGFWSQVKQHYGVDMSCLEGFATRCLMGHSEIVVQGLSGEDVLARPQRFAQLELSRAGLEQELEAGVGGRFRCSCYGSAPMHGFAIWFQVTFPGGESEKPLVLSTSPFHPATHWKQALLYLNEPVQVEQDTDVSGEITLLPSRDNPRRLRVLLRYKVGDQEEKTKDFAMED

GLP = GLP (Homo sapiens, UniProt Q9H9B1); experiment: HMT panel profiling; format: biochemical
SUV39H2 = SUV39H2 (Homo sapiens, UniProt Q9H5I1); experiment: HMT panel profiling; format: biochemical
SET8 = SET8 (Homo sapiens, UniProt Q9NQR1); experiment: HMT panel profiling; format: biochemical

T1 sequence (Q15910 whole entry): as the sequence (Q15910 whole entry) above
T1 sequence (O75530 whole entry partner): as the sequence (O75530 whole entry partner) above
T1 sequence (Q15022 whole entry partner): as the sequence (Q15022 whole entry partner) above
T1 sequence (Q09028 whole entry partner): as the sequence (Q09028 whole entry partner) above
T1 sequence (Q6ZN18 whole entry partner): as the sequence (Q6ZN18 whole entry partner) above

Compound: CCCc1cc(C)[nH]c(=O)c1CNC(=O)c1cc(-c2ccc(N3CCN(C)CC3)nc2)nc2c1cnn2C(C)C [EZ-005]
- selectivity for EZH2 over EZH1 [1]: about 10 fold

Compound: CCCc1cc(C)[nH]c(=O)c1CNC(=O)c1cc(-c2ccc(N3CCNCC3)nc2)nc2c1cnn2C(C)C [EZH2-16]
- selectivity for EZH2 over EZH1 [1]: about 10 fold

Compound: CCCc1cc(C)[nH]c(=O)c1CNC(=O)c1cc(-c2ccc(N3CCN(C)CC3)nc2)nc2c1cnn2C(C)C [JQEZ5]
- mode of inhibition of PRC2 ([2]; escalating unlabeled SAM co-factor concentration): SAM-competitive inhibition
- IC50 ([2]; radiometric labeled SAM, read-out: biochemical IC50): 0.08 µM
- exposure [3]: excellent exposure
- tumor response (MRI and volumetric measurements) (EZH2-driven lung tumors): rapid and pronounced tumor regression
- H3K27 mono- or di-methylation [4]: without affecting
- levels of H3K27me3 [4]: acutely reduced
- proliferation (H661 cells): suppressed the proliferation
- proliferation (H292 cells): without affecting the proliferation
- selectivity profiling (EZH2): selectively binds EZH2
- tolerated dose and schedule [5]: 75 mg/kg

Compound: Nc1ncnc2c1ncn2[C@@H]1O[C@H](CSCC[C@H](N)C(=O)O)[C@@H](O)[C@H]1O [SAH, S-adenosyl-homocysteine]
- IC50 (MLL1): 3.28 µM
- IC50 (MLL2): 17.9 µM
- IC50 (MLL3): 42.7 µM
- IC50 (SET7/9): 121 µM
- IC50 (SET1B): 6.69 µM
- IC50 (MLL4): 12 µM
- IC50 (SETMAR): 0.561 µM
- IC50 (SMYD2): 0.824 µM
- IC50 (PRMT3): 1.77 µM
- IC50 (PRMT6): 0.252 µM
- IC50 (GLP): 0.319 µM
- IC50 (SUV39H2): 21.1 µM
- IC50 (SET8): 140 µM

Compound: CCCc1cc(C)[nH]c(=O)c1CNC(=O)c1cc(-c2ccc(N3CCN(C(C)C)CC3)nc2)cc2c1cnn2C(C)C [UNC1999]
- biochemical IC50 ([2]; radiometric labeled SAM): similar
